Where “and” joins values, the source holds several entries; their conditions need not be identical. Equal values may be shown once. Read-outs that look alike come from different tables or passages of the source.
Columns and labels:
[1] = tested on: swine Oesophagostomum (Oesophagostomum dentatum); experiment: Test of anthelmintic effect against swine Oesophagostomum in naturally infected pigs, E.P.G. on 7th day (Test Examples A8, B8, C8, D8); format: in vivo; conditions: for anthelmintic effect: one administration of 20 mg/Kg
Experimental: Six pigs infected with swine Oesophagostomum (naturally infected pigs) were employed by grouping them into groups each of two pigs.
(§1) As a control, only gelatin capsules were administered orally to the two pigs.
(§2) Before administration and on the 7th day after administration, fecal matter testing was conducted to calculate the E.P.G., and the anthelmintic effect was judged by the changing of the E.P.G. to negative.

[2] = tested on: canine strongyloides (Strongyloides stercoralis); experiment: Anthelmintic test against canine strongyloides in naturally infected dogs, E.P.G. on 7th day (Test Examples A4, B4, C4, D4); format: in vivo; conditions: dogs, 10 mg/Kg orally once, one value per dog
Experimental: Three dogs infected with canine strongyloides (naturally infected dogs) were employed by grouping them into a group of two and a group of one.
As control, only a gelatin capsule was administered orally to the one dog.
as §2
(§3) As control, only gelatin capsules were administered orally to the one dog.
as §3

[3] = tested on: Liver fluke; Fasciola hepatica (F. hepatica); experiment: Test of anthelmintic effect against rat infected experimentally with liver fluke (Test Examples A11, B11, C11, D11); format: in vivo; parameters: key to Presence or absence of fluke egg in fecal matter On 21st day after the last administration: +: indicates detection of fluke egg; -: indicates no detection
[4] = tested on: Diphyllobothrium erinacei; experiment: Test of anthelmintic effect against Diphyllobothrium erinacei (tapeworm) in experimentally infected cats (Test Examples A5, B5, C5, D5)
[5] = tested on: stomach worm (Haemonchus controtus); experiment: Anthelmintic test against cow stomach worm in naturally infected cows, E.P.G. on 7th day (Test Examples A6, B6, C6, D6); format: in vivo; conditions: cows
Experimental: Three cows infected with stomach worm (naturally infected cows) were employed by grouping them into a group of two and a group of one.
(§4) As control, only gelatin capsules were administered orally to the one cow.
as §2, §4, §4

[6] = tested on: canine filaria; Dirofilaria immitis; experiment: Test of anthelmintic effect against canine filaria in naturally infected dogs, subcutaneous injection, microfilaria in blood and adult filaria at autopsy (Test Examples A10, B10, C10, D10); format: in vivo; conditions: for inhibition in vivo at 20 mg/kg: Dirofilaria immitis, sc, 240 h
Experimental: Eight dogs infected with canine filaria; Diro- filaria immitis (naturally infected dogs) were employed in groups each of two dogs.
The compounds provided for tests were Compound Nos. Al, A3 and A12. 20 mg of each was administered by subcutaneous injection per Kg of body weight to each of the two dogs as a suspension in 1% "Tween 80" solution once per day for three days. As control, 3 ml of the 1% "Tween 80" solution was subcutaneously injected into two dogs once per day for three days.
Before administration and on the 10th day after administration, 20 µl of earlobe blood of each dog was sampled and examined to determine the change in microfilaria (mf) according to the concentrated smear color method, and judgement on the effect on microfilaria (mf) was made. Judgement relating to adult filaria was made on the 10th day after the last administration by killing the dogs and carrying out autopsis.
30 mg of each compound was administered by subcutaneous injection per Kg of body weight to each of the two dogs as a suspension in 1% "Tween 80" solution once per day for three days. As control, 3 ml of the 1% "Tween 80" solution was subcutaneously injected into two dogs once per day for three days.
30 mg of each compound was administered by subcutaneous injection per Kg of body weight to each of two dogs as a suspension in 1% "Tween 80" solution once per day for three days. As control, 3 ml of the 1% "Tween 80" solution was subcutaneously injected to two dogs once per day for three days.
20 mg of each compound was administered by subcutaneous injection per kg of body weight once per day for three days to each of two dogs. These compounds were administered as a suspension in 1% "Tween 80" in the case of Compound No.Dl3 and as solutions dissolved in distilled water for injection in the case of Compounds Nos. D10 and D16, respectively. As control, 3 ml of the 1% "Tween 80" solution was subcutaneously injected into two dogs once per day for three days.

[7] = tested on: fowl roundworm (As. galli); experiment: Anthelmintic test in chickens artificially infected with fowl roundworm, compound added to feed, E.P.G. and worm count up to 21st day (Test Examples A2, B2, C2, D2); format: in vivo, Ascaridia galli; conditions: for inhibition in vivo at 10 ppm: 10 ppm added to feed
[8] = tested on: swine whipworm (Trichuris suis); experiment: Test of anthelmintic effect in naturally infected pigs, E.P.G. on 7th day: swine whipworm (Test Examples A9, B9, C9, D9); format: in vivo
Experimental: (§5) Six pigs infected with swine roundworm and swine whipworm (naturally infected pigs) were employed in groups each of two pigs.
as §1
(§6) Before administration and on the 7th day after. administration, fecal matter testing was conducted to calculate the E.P.G., and the anthelmintic effect was judged by the changing of the E.P.G. to negative'.
(§7) 50 mg of each compound was placed in a gelatin capsule per 1 Kg of body weight and administered orally to each of the two pigs. As control, only gelatin capsules were administered orally to two pigs.
(§8) 30 mg of each compound was placed in a gelatin capsule per 1 Kg of body weight and administered orally to each of the two pigs. As control, only gelatin capsules were administered orally to two pigs.

[9] = tested on: swine roundworm (Ascaris suum); experiment: Test of anthelmintic effect in naturally infected pigs, E.P.G. on 7th day: swine roundworm (Test Examples A9, B9, C9, D9); format: in vivo; conditions: for anthelmintic effect: pigs infected with swine roundworm and swine whipworm (statement covers both)
Experimental: as §5, §1, §6, §7, §8

[10] = tested on: fowl roundworm (Ascaridia galli); experiment: Anthelmintic test in chickens artificially infected with fowl roundworm, single oral dose in gelatin capsule, worm bodies counted within 48 hours (Test Examples A1, B1, C1, D1); format: in vivo; conditions: Ascaridia galli, po, 48 h, read-out: Anthelmintic effect after 48 hours
Method in brief: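 Anthelmintic percentage derived from counts of worms passed within 48 h plus worms left in the intestine after killing at 48 h. Infection confirmed by fecal examination in three-bird groups; compound given orally once in gelatin capsules at 10/20 (A1, B1), 30/50 (C1) or 15/30 (D1) mg/kg.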

[11] = pigs, 20 mg/Kg orally once, one value per pig
[12] = rats, 50 mg/Kg x 5 orally, autopsy, liver, "Denatured" = fluke body is alive but a part of fluke body has changed, one value per rat
[13] = rats, 50 mg/Kg x 5 orally, one value per rat
[14] = dogs, administration of 20 mg/Kg repeated three times, given as about 50% or more, read-out: anthelmintic effect against adult filaria
[15] = dogs, 20 mg/Kg x 3 subcutaneously, autopsy on 10th day after the last administration, one value per dog, 20 mg/kg
[16] = dogs, administration of 20 mg/Kg repeated three times
[17] = Ascaridia galli, po, 504 h, chickens, worm count on 21st day, one value per chicken, read-out: Anthelmintic effect
[18] = Ascaridia galli, po, 504 h, chickens, 50 ppm added to feed, worm count on 21st day, one value per chicken, read-out: Anthelmintic effect
[19] = pig, 30 mg/Kg oral in gelatin capsule, one administration
[20] = pig, Ascaris suum, 30 mg/Kg oral in gelatin capsule, one administration
[21] = chicken, 30 mg/Kg oral in gelatin capsule, chickens No.1-3
[22] = chicken, 50 mg/Kg oral in gelatin capsule, chickens No.1-3
[23] = Ascaridia galli, feed or water, 504 h, chicken, 25 ppm in feed, read-out: Anthelmintic effect
[24] = Ascaridia galli, feed or water, 504 h, chicken, 50 ppm in feed, read-out: Anthelmintic effect

SMILES: C#CCN(OCC=C)C(C)=O [Compound A3, N-propargyl-N-acetyl-O-allylhydroxylamine]
- Change of E.P.G. Before administration ([1]; pigs, 20 mg/Kg orally once, baseline, one value per pig, 20 mg/kg): 1,600 E.P.G. and 1,000 E.P.G.
- Change of E.P.G. 7th day [1, 11]: 0 E.P.G.
- anthelmintic effect ([1]; pigs): marked anthelmintic effect
- Change of E.P.G. Before administration ([2]; baseline, 10 mg/kg): 1,900 E.P.G. and 2,700 E.P.G.
- Change of E.P.G. 7th day [2]: 0 E.P.G.
- Condition of fluke body [3, 12]: dead
- Presence or absence of fluke egg in fecal matter On 21st day after the last administration [3, 13]: -
- Number of worm bodies remaining in enteron ([4]; cats infected with 5 plerocercoids, 50 mg/Kg x 5 times orally, autopsy ten days after administration, one value per cat): 0
- Worm egg detection on 10th day after administration ([4]; cats, 50 mg/Kg x 5 times orally, one value per cat (Table A7)): -
- anthelmintic effect ([4]; cats, 5 continuous administrations of 50 mg/Kg): marked anthelmintic effects
- Change of E.P.G. Before administration ([5]; 15 mg/Kg orally once, baseline, one value per cow, 15 mg/kg): 1,700 E.P.G. and 1,500 E.P.G.
- Change of E.P.G. 7th day ([5]; 15 mg/Kg orally once, one value per cow): 0 E.P.G.
- anthelmintic effect ([5]; one administration of 15 mg/Kg): marked anthelmintic effect
- inhibition in vivo at 20 mg/kg [6, 14]: ≥ 50%
- Effect on adult filaria: Number of worms killed/Total parasites [6, 15]: 13/18 and 4/ 8
- Effect on adult filaria: Percent of worms killed [6, 15]: 72% and 50%
- Number of microfilaria/20 µl On 10th day after the last administration ([6]; dogs, 20 mg/Kg x 3 subcutaneously, earlobe blood, one value per dog): 0 /20 µl
- anthelmintic effect against microfilaria (mf) [6, 16]: marked anthelmintic effect
- inhibition in vivo at 10 ppm [7, 17]: 100%
- inhibition in vivo at 50 ppm [7, 18]: 100%

SMILES: C=CCON(CC=C)C(=O)CCC [Compound C3]
- Change of E.P.G. 7th day [8, 19]: 0
- Change of E.P.G. 7th day [9, 20]: 0
- Change of E.P.G. Before administration ([9]; pig, Ascaris suum, before 30 mg/Kg oral (baseline)): 1,300 and 2,100
- anthelmintic effect ([9]; one administration of 30 mg/Kg): marked anthelmintic effect
- inhibition in vivo at 30 mg/kg [10, 21]: 80 to 90%
- inhibition in vivo at 50 mg/kg [10, 22]: 100%
- inhibition in vivo at 25 ppm [7, 23]: 80 to 90%
- inhibition in vivo at 50 ppm [7, 24]: 100%

SMILES: C#CCNOCC.Cl [Compound D10, N-propargyl-O-ethylhydroxylamine hydrochloride]
- Change of E.P.G. 7th day ([8]; pig, 20 mg/Kg, one administration): 0
- Change of E.P.G. 7th day ([9]; pig, Ascaris suum, 20 mg/Kg, one administration): 0
- inhibition in vivo at 15 mg/kg ([10]; chicken, 15 mg/Kg oral in gelatin capsule, chickens No.1-3): 100%
- inhibition in vivo at 30 mg/kg [10, 21]: 100%
- inhibition in vivo at 20 mg/kg ([6]; dog, 20 mg/Kg x 3, subcutaneous injection, read-out: Effect on adult filaria: Percent of worms killed): 54%
- inhibition in vivo at 20 mg/kg [6, 14]: ≥ 50%
- Number of microfilaria/20µl On 10th day after the administration ([6]; dog, 20 mg/Kg x 3, subcutaneous injection): 0 /20µl
- Effect on adult filaria: Number of worms killed/ Total parasite ([6]; dog, 20 mg/Kg x 3, subcutaneous injection, hydrochloride, 20 mg/kg): 18/33 and 20/28
- anthelmintic effect against microfilaria (mf) [6, 16]: marked anthelmintic effect

SMILES: C=CCON(CC=C)C(=O)c1ccccc1 [Compound C6]
- Change of E.P.G. 7th day [8, 19]: 0
- Change of E.P.G. Before administration ([8]; pig, before 30 mg/Kg oral (baseline)): 4,300 and 5,800
- Change of E.P.G. 7th day [9, 20]: 0
- anthelmintic effect ([9]; one administration of 30 mg/Kg): marked anthelmintic effect
- Change of E.P.G. 7th day ([1]; pig, Oesophagostomum dentatum, 20 mg/Kg, one administration): 0
- anthelmintic effect ([1]; pigs): marked anthelmintic effect
- Condition of fluke body ([3]; rat, 50 mg/Kg x 5): dead
- Presence or absence of fluke egg in fecal matter On 21st day after the last administration ([3]; rat, 50 mg/Kg x 5): -
- anthelmintic effect ([3]; rats, five administrations in a dose of 50 mg/Kg each): marked antihelmintic effect
- inhibition in vivo at 30 mg/kg [10, 21]: 100%
- inhibition in vivo at 50 mg/kg [10, 22]: 100%
- inhibition in vivo at 25 ppm [7, 23]: 100%
- inhibition in vivo at 50 ppm [7, 24]: 100%
- Change of E.P.G. 21st day ([7]; chicken, 25 ppm in feed): 0
- Change of E.P.G. 21st day ([7]; chicken, 50 ppm in feed): 0

SMILES: C#CCN(OCCCC)C(=O)c1ccccc1 [Compound A10, N-propargyl-N-benzoyl-O-butylhydroxylamine]
- Change of E.P.G. 7th day [8, 11]: 0 E.P.G.
- anthelmintic effect ([9]; one administration of 20 mg/Kg): marked anthelmintic effect
- Change of E.P.G. 7th day ([9]; pigs, 20 mg/Kg orally once, Ascaris suum, one value per pig): 0 E.P.G.
- Condition of fluke body [3, 12]: dead
- Presence or absence of fluke egg in fecal matter On 21st day after the last administration [3, 13]: -
- inhibition in vivo at 10 ppm [7, 17]: 80 to 90%
- inhibition in vivo at 50 ppm [7, 18]: 100%

SMILES: C=CCN(OC)C(=O)c1ccccc1 [Compound B5, N-allyl-N-benzoyl-O-methylhydroxylamine]
- Change of E.P.G. Before administration ([8]; pigs, 50 mg/Kg orally once, baseline, one value per pig, 50 mg/kg): 2,100 E.P.G. and 1,300 E.P.G.
- Change of E.P.G. 7th day ([8]; pigs, 50 mg/Kg orally once, one value per pig): 0 E.P.G.
- anthelmintic effect ([9]; one administration of 50 mg/Kg): marked anthelmintic effect
- Change of E.P.G. 7th day ([9]; pigs, 50 mg/Kg orally once, Ascaris suum, one value per pig): 0 E.P.G.
- inhibition in vivo at 30 mg/kg ([10]; chickens, 30 mg/Kg orally in gelatin capsule, one value per chicken (No.1-3)): 100%
- inhibition in vivo at 50 mg/kg ([10]; chickens, 50 mg/Kg orally in gelatin capsule, one value per chicken (No.1-3)): 100%
- inhibition in vivo at 20 ppm ([7]; Ascaridia galli, po, 504 h, chickens, 20 ppm added to feed, worm count on 21st day, one value per chicken, read-out: Anthelmintic effect): 80 to 90%
- inhibition in vivo at 50 ppm [7, 18]: 100%
